Laboratory results taken from ChEMBL document CHEMBL1127000, “Synthesis and excitatory amino acid pharmacology of some novel quinoxalinediones” (Bioorg Med Chem Lett, 1993).

Key:
[1] = target: Glutamate receptor ionotropic, AMPA (Rattus norvegicus) (UniProt P19491+P19492+P19493+P19490); assay: Binding affinity for Ionotropic glutamate receptor AMPA was determined by the ability to displace [3H]AMPA in rat cortical membranes at 10 uM; format: cell membranes
[2] = target: Glutamate receptor ionotropic, NMDA 1 (Rattus norvegicus) (UniProt P35439); assay: Binding affinity for glycine site-NMDA receptor was determined by the ability to displace [3H]glycine in rat cortical membranes at 10 uM; format: cell membranes
[3] = target: Glutamate receptor ionotropic, NMDA 1 (Rattus norvegicus, UniProt P35439); assay: Binding affinity for glycine site-NMDA receptor was determined by the ability to displace [3H]glycine in rat cortical membranes; format: cell membranes
[4] = target: Glutamate receptor ionotropic, AMPA (Rattus norvegicus, UniProt P19490+P19491+P19492+P19493)
[5] = target: Glutamate receptor ionotropic, NMDA 1 (Rattus norvegicus) (UniProt P35439); assay: Tested for the ability to displace [3H]glycine in rat cortical membranes at a concentration of 10 uM; format: cell membranes

SMILES | Displacement [1] [%] | Displacement [2] [%] | Ki [3] [nM] | Ki [4] [nM] | Displacement [5] [%]
Cc1cc2[nH]c(=O)c(=O)n(Cc3nn[nH]n3)c2cc1C | 52.4 | 49.6 | – | – | –
Cc1cc2[nH]c(=O)c(=O)n(C(C)C(=O)O)c2cc1C (centres undefined) | 13.9 | 2.6 | – | – | –
Cc1cc2[nH]c(=O)c(=O)n(CP(=O)(O)O)c2cc1C | – | – | 5280 | 1210 | –
Cc1cc2[nH]c(=O)c(=O)n(CCC(=O)O)c2cc1C | 28.5 | 58.2 | – | – | –
O=C(O)Cn1c(=O)c(=O)[nH]c2cc(Cl)c(Cl)cc21 | – | – | 110 | 2100 | –
Cc1cc2[nH]c(=O)c(=O)n(CC(=O)NS(C)(=O)=O)c2cc1C | 49 | 36 | – | – | –
Cc1ccc(S(=O)(=O)NC(=O)Cn2c(=O)c(=O)[nH]c3cc(C)c(C)cc32)cc1 | 28 | 48 | – | – | –
Cc1cc2[nH]c(=O)c(=O)n(CCCC(=O)O)c2cc1C | – | 29.6 | – | 8000 | –
Cc1cc2[nH]c(=O)c(=O)n(CC(=O)O)c2cc1C | – | – | 13800 | 700 | –
O=c1[nH]c2cc(Cl)c(Cl)cc2n(Cc2nn[nH]n2)c1=O | 58.6 | 58.8 | – | – | –
COC(=O)Cn1c(=O)cnc2cc(C)c(C)cc21 | 4.6 | – | – | – | 8
Cc1cc2[nH]c(=O)c(=O)n(CC(=O)Nc3ccccc3)c2cc1C | 5.2 | – | – | – | 2.9
